# Experimental data reported in publication PMC5855801, “Benzothiophenone Derivatives Targeting Mutant Forms of Estrogen Receptor-α in Hormone-Resistant Breast Cancers” (International Journal of Molecular Sciences, 2018).
# Experiments:
# [1] = test system: ERα-dependent genes pS2, PR, Cyclin D1 and CDC2; experiment: qRT-PCR of ERα-dependent genes in TamR3 cells; format: cell-based, human; conditions: TamR3, 24 h, 1 nM E2
# Description: mRNA levels were analyzed after treatment of MCF7 and TamR3 cells for 24 h with the test compounds as described previously. The fold change in expression of the genes was calculated using the 2^−ΔΔCt method with GAPDH as the internal control.
# [2] = test system: pS2, PR, Cyclin D1 and CDC2 proteins; experiment: Western blotting in TamR3 cells; format: cell-based, human; conditions: TamR3, 24 h, effect at higher doses
# Description: Serum-starved MCF7 and TamR3 cells were seeded onto a six-well plate at a density of 6 × 10^5 cells/well and treated the following day with VPC-16606 in the presence of 1 nM E2. One micromolar OHT was used as the positive control. After 24 h, cells were lysed in 1× radioimmunoprecipitation assay (RIPA) buffer. Twenty five micrograms of protein were loaded into SDS-PAGE gels and transferred to PVDF membranes. Membranes were incubated with pS2, PR Cyclin D1 and CDC2 antibodies or control α-actin antibody. Bound antibodies were detected using HRP-conjugated secondary antibodies. Chemiluminescence was detected with an Amersham ECL detection kit (GE Healthcare Life Sciences, Chicago, IL, USA), and bands were visualised using the G:BOX imager (Syngene, Cambridge, UK).
# androgen receptor (AR) = molecular target: T1, androgen receptor (AR) (Homo sapiens, UniProt P10275); experiment: Luciferase reporter selectivity assay in PC3 cells, AR; format: cell-based; conditions: 24 h
# T1 construct: expressed in transfected cells; host or cells: PC3
# T1 sequence (P10275 1-920): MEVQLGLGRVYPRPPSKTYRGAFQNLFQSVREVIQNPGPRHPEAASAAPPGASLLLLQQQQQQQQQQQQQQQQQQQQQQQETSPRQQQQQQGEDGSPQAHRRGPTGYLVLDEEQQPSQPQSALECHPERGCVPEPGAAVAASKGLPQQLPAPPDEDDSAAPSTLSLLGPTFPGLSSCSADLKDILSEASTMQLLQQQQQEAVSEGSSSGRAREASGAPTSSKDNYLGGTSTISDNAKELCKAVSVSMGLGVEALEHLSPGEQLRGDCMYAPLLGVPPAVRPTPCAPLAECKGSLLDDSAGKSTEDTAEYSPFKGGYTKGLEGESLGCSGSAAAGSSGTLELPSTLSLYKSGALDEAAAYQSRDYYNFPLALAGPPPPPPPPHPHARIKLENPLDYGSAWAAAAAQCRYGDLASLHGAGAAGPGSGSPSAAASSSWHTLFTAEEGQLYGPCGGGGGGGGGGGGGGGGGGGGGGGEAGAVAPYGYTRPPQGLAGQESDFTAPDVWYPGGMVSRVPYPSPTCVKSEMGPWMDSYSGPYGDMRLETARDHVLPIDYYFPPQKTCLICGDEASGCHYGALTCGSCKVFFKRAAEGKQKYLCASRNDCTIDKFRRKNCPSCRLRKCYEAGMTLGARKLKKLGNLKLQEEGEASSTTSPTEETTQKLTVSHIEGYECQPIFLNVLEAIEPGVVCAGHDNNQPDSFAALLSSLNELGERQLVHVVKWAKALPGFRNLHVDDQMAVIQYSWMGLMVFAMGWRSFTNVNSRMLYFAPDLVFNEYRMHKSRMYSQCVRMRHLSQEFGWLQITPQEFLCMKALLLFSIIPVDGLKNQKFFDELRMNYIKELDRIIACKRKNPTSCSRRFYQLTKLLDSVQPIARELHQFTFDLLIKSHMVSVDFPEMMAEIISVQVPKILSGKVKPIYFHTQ
# Description: Figure 4 Further activity profile of VPC-16606. (A,B) Chromatin immunoprecipitation (ChIP) analysis of ERα binding to the pS2 enhancer, or the GAPDH promoter, in MCF7 cells. Where indicated, ERα was stimulated with 1 nM E2 or dimethyl sulfoxide (DMSO) alone, and the compound was administered at a 6 μM concentration. Sheared chromatin-protein complexes were precipitated with the ERα antibody, reverse cross-linked and analyzed by quantitative PCR. The results are normalized as fold enrichment over precipitation with a rabbit isotype control IgG antibody for each condition tested. Error bars indicate standard error of the mean (SEM) for 3 independent experiments performed in triplicates. Fold enrichment from the compound tested condition (ERα antibody) was statistically compared against DMSO + E2 with a two-tailed t-test (unpaired) *** indicates p-value <0.001. (C) Specificity of VPC-16606 was evaluated in the luciferase reporter assay. PC3 cells were transfected with plasmids expressing androgen receptor (AR), progesterone receptor (PR) or glucocorticoid receptor (GR) along with their responsive luciferase reporter constructs bearing androgen response element (ARE), progesterone response element (PRE) or glucocorticoid response element (GRE), respectively. […] Y-axis represents relative luminescence (RLU) after normalizing to constitutive renilla reporter. […]
smiles,measurement,setting,value
CC(=O)N(/N=C1\Sc2c(C)cccc2C1=O)c1ccccc1Cl [VPC-16606],"mRNA levels of ERα-dependent genes pS2, PR, Cyclin D1 and CDC2",[1],significantly downregulates
same,"Expression of pS2, PR, Cyclin D1 and CDC2 proteins (Western blot)",[2],decreased expression
same,Effect on AR activity (luciferase),androgen receptor (AR); 50 µM,some effect
same,Effect on AR activity (luciferase),androgen receptor (AR); doses up to 25 µM,does not affect the activity
